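Tested at 5 concentrations; 48 h exposure; 96-well plates; endpoints linearly interpolated, else capped at highest concentration. TGI: concentration producing complete growth inhibition.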
Experiments:
Assay in all cases: NCI tumour cell line growth inhibition, 48 h
HT29 colon = test system: HT29 colon
KM20L2 colon = test system: KM20L2 colon
LXFL 529 NSCLC = test system: LXFL 529 NSCLC
UACC-62 melanoma = test system: UACC-62 melanoma
RXF-631 renal = test system: RXF-631 renal
K-562 leukemia = test system: K-562 leukemia
HCT-15 colon = test system: HCT-15 colon
OVCAR-4 ovarian = test system: OVCAR-4 ovarian
OVCAR-3 ovarian = test system: OVCAR-3 ovarian
OVCAR-5 ovarian = test system: OVCAR-5 ovarian
XF 498 CNS = test system: XF 498 CNS
UACC-257 melanoma = test system: UACC-257 melanoma
786-0 renal = test system: 786-0 renal
DMS 114 small cell lung = test system: DMS 114 small cell lung
IGROV1 ovarian = test system: IGROV1 ovarian
SNB-78 CNS = test system: SNB-78 CNS
NCI-H226 lung = test system: NCI-H226 lung
ACHN renal = test system: ACHN renal
M14 melanoma = test system: M14 melanoma
SK-OV-3 ovarian = test system: SK-OV-3 ovarian
KM12 colon = test system: KM12 colon
CCRF-CEM leukemia = test system: CCRF-CEM leukemia
A498 renal = test system: A498 renal
SF-539 CNS = test system: SF-539 CNS
HOP-62 NSCLC = test system: HOP-62 NSCLC
A549 NSCLC = test system: A549 NSCLC
COLO 205 colon = test system: COLO 205 colon
HCC-2998 colon = test system: HCC-2998 colon
RPMI-8226 leukemia = test system: RPMI-8226 leukemia
U251 CNS = test system: U251 CNS
MALME-3M melanoma = test system: MALME-3M melanoma
LOX IMVI melanoma = test system: LOX IMVI melanoma
CAKI-1 renal = test system: CAKI-1 renal
NCI-H23 lung = test system: NCI-H23 lung
SN12C renal = test system: SN12C renal
RXF 393 renal = test system: RXF 393 renal
DMS 273 small cell lung = test system: DMS 273 small cell lung
SK-MEL-2 melanoma = test system: SK-MEL-2 melanoma
SW-620 colon = test system: SW-620 colon
UO-31 renal = test system: UO-31 renal
SF-295 CNS = test system: SF-295 CNS
SK-MEL-5 melanoma = test system: SK-MEL-5 melanoma
HL-60(TB) leukemia = test system: HL-60(TB) leukemia
MOLT-4 leukemia = test system: MOLT-4 leukemia
DLD-1 colon = test system: DLD-1 colon
SK-MEL-28 melanoma = test system: SK-MEL-28 melanoma
M19-MEL melanoma = test system: M19-MEL melanoma
HOP-92 NSCLC = test system: HOP-92 NSCLC
HOP-18 NSCLC = test system: HOP-18 NSCLC
NCI-H460 lung = test system: NCI-H460 lung
SF-268 CNS = test system: SF-268 CNS
SNB-75 CNS = test system: SNB-75 CNS
NCI-H522 lung = test system: NCI-H522 lung
HCT-116 colon = test system: HCT-116 colon
SNB-19 CNS = test system: SNB-19 CNS
SR leukemia = test system: SR leukemia
OVCAR-8 ovarian = test system: OVCAR-8 ovarian
EKVX NSCLC = test system: EKVX NSCLC
TK-10 renal = test system: TK-10 renal

Measured: TGI

CCOC(=O)NC1C2CC(=O)C(O2)C1OCc1ccccc1 (stereo not drawn)
not listed: NCI-H522 lung | HCT-116 colon | SNB-19 CNS | SR leukemia | OVCAR-8 ovarian | EKVX NSCLC | TK-10 renal
> 100 µM: all other assays above

COC(=O)C(CC(=O)c1ccccc1)c1ccccc1NC(C)=O (stereo not drawn)
not listed: RXF 393 renal | DMS 273 small cell lung | SK-MEL-2 melanoma
> 100 µM: all other assays above
